Data: US4612372A, “Tylosin derivatives” (Sanraku Incorporated, priority 1984, dated 1986)

How the values were obtained:
[1] = Stability against liver homogenate of mice; assay type: in vitro ADME, mice (ICB strain); conditions: for remaining at 1 h: pH 7.2, mouse liver homogenate supernatant, 37° C., contact 60 minutes, read-out: Residual Intact Compound Rate
Protocol: Liver from ICB strain mice was homogenated with a potter's homogenizer (3000 rpm, 10 minutes) together with a 5-fold amount of 0.1M phosphate buffer (pH 7.2). To the supernatant was added 1 ml of a 500 μg/ml (10% methanolic water) of a specimen. After the mixture was reacted at 37° C. for 1 hour, the reaction mixture was heated at 100° C. for 3 minutes. Then, 1 ml of 0.1M phosphate buffer (pH 9.0) was added thereto and extracted with 1 ml of ethyl acetate. The organic layer was subjected to silica gel thin layer chromatograph y (chloroform/methanol/ammonia=15/1.2/0.1). By a chromatographic scanner (283 nm), a formation ratio of the unchanged substance to the hydrolysate was determined and the formation of the hydrolysate was expressed by percentage.

resistant bacteria [2] = conditions: drug-resistant bacteria
esterase = experiment: Hydrolysis by esterase in vivo (particularly in liver)
[3] = system: infectious diseases of mice; experiment: Experiment of treatment for infectious diseases of mice; assay type: in vivo
resistant bacteria [4] = conditions: U.S. Pat. No. 4,205,163; cited from earlier work
[5] = system: pathogenic microorganisms; experiment: Antibacterial activity in general (in words); assay type: cell-based

Structure (SMILES)	remaining at 1 h [1] [%]	other results
CCC1OC(=O)CC(O)C(C)C(OC2OC(C)C(OC3CC(C)(O)C(OC(=O)Cc4ccc(S(C)(=O)=O)cc4)C(C)O3)C(N(C)C)C2O)C(CC=O)CC(C)C(=O)C=CC(C)=CC1COC1OC(C)C(O)C(OC)C1OC (stereo not shown) [Compound 1, 4"-O-(4-Methylsulfonylphenylacetyl)tylosin]	89	–
CCC1OC(=O)CC(O)C(C)C(OC2OC(C)C(OC3CC(C)(O)C(OC(=O)Cc4ccc(SC)cc4)C(C)O3)C(N(C)C)C2O)C(CC=O)CC(C)C(=O)C=CC(C)=CC1COC1OC(C)C(O)C(OC)C1OC (stereo not shown) [Compound 2, 4"-O-(4-Methylthiophenylacetyl)tylosin]	84	–
CCC1OC(=O)CC(O)C(C)C(OC2OC(C)C(OC3CC(C)(O)C(OC(=O)Cc4ccc(C(C)=O)cc4)C(C)O3)C(N(C)C)C2O)C(CC=O)CC(C)C(=O)C=CC(C)=CC1C (stereo not shown) [Compound 3]	95	–
CCC1OC(=O)CC(O)C(C)C(OC2OC(C)C(OC3CC(C)(O)C(OC(=O)Cc4ccc(C(=O)c5ccccc5)cc4)C(C)O3)C(N(C)C)C2O)C(CC=O)CC(C)C(=O)C=CC(C)=CC1COC1OC(C)C(O)C(OC)C1OC (stereo not shown) [Compound 4, 4"-O-(4-Benzoylphenylacetyl)tylosin]	82	–
CCC1OC(=O)CC(O)C(C)C(OC2OC(C)C(OC3CC(C)(O)C(OC(=O)Cc4ccc(OC)cc4)C(C)O3)C(N(C)C)C2O)C(CC=O)CC(C)C(=O)C=CC(C)=CC1COC1OC(C)C(O)C(OC)C1OC (stereo not shown) [Compound 5, 4"-O-(4-Methoxyphenylacetyl)tylosin]	94	–
CCC1OC(=O)CC(O)C(C)C(OC2OC(C)C(OC3CC(C)(O)C(OC(=O)Cc4ccc(F)cc4)C(C)O3)C(N(C)C)C2O)C(CC=O)CC(C)C(=O)C=CC(C)=CC1COC1OC(C)C(O)C(OC)C1OC (stereo not shown) [Compound 6, 4"-O-(4-Fluorophenylacetyl)tylosin]	95	–
CCC1OC(=O)CC(O)C(C)C(OC2OC(C)C(OC3CC(C)(O)C(OS(=O)(=O)Cc4ccc(F)cc4)C(C)O3)C(N(C)C)C2O)C(CC=O)CC(C)C(=O)C=CC(C)=CC1COC1OC(C)C(O)C(OC)C1OC (stereo not shown) [Compound 7, 4"-O-(4-Fluorobenzylsulfonyl)tylosin]	< 95	–
CCC1OC(=O)CC(O)C(C)C(OC2OC(C)C(OC3CC(C)(O)C(OC(=O)Cc4ccc(C(C)=O)cc4)C(C)O3)C(N(C)C)C2O)C(CC=O)CC(C)C(=O)C=CC(C)=CC1COC1OC(C)C(O)C(OC)C1OC (stereo not shown) [Compound 8, 4"-O-(4-Acetylphenylacetyl)tylosin]	< 95	–
CCC1OC(=O)CC(O)C(C)C(OC2OC(C)C(OC3CC(C)(O)C(OC(=O)Cc4ccccc4F)C(C)O3)C(N(C)C)C2O)C(CC=O)CC(C)C(=O)C=CC(C)=CC1COC1OC(C)C(O)C(OC)C1OC (stereo not shown) [Compound 9, 4"-O-(2-Fluorophenylacetyl)tylosin]	95	–
CCC1OC(=O)CC(OC(C)=O)C(C)C(OC2OC(C)C(OC3CC(C)(O)C(OC(=O)Cc4ccc(C(C)=O)cc4)C(C)O3)C(N(C)C)C2O)C(CC=O)CC(C)C(=O)C=CC(C)=CC1COC1OC(C)C(O)C(OC)C1OC (stereo not shown) [Compound 10, 3-O-acetyl-4"-O-(4-acetylphenylacetyl)tylosin]	< 95	–
CCC1OC(=O)CC(O)C(C)C(OC2OC(C)C(OC3CC(C)(O)C(OC(=O)Cc4ccccc4)C(C)O3)C(N(C)C)C2O)C(CC=O)CC(C)C(=O)C=CC(C)=CC1COC1OC(C)C(O)C(OC)C1OC (stereo not shown) [Control 1, reference compound]	–	antibacterial activity against resistant bacteria (in words) (resistant bacteria [2]): poor in antibacterial activity against resistant bacteria; stability against liver homogenate (in words) ([1]; liver homogenate of mice): good result
CCC1OC(=O)CC(O)C(C)C(OC2OC(C)C(OC3CC(C)(O)C(OC(=O)CSc4ccccc4)C(C)O3)C(N(C)C)C2O)C(CC=O)CC(C)C(=O)C=CC(C)=CC1COC1OC(C)C(O)C(OC)C1OC (stereo not shown) [Control 2, 4"-O-phenylthioacetyltylosin]	0	hydrolysis by esterase (in words) (esterase): completely hydrolyzed by esterase; result in experiment of treatment for infectious diseases of mice (in words) [3]: merely unsatisfactory results; effectiveness against macrolide-resistant bacteria (in words) (resistant bacteria [4]): most effective tylosin derivative against macrolide-resistant bacteria; antibacterial activity (in words) [5]: high antibacterial activity in vitro
CCC1OC(=O)CC(O)C(C)C(OC2OC(C)C(OC3CC(C)(O)C(OC(=O)Cc4ccccc4)C(C)O3)C(N(C)C)C2O)C(CC=O)CC(C)C(=O)C=CC(C)=CC1COC1OC(C)C(O)C(OC)C1OC (stereo not shown) [Control 3, reference compound]	< 95	–
CCC1OC(=O)CC(O)C(C)C(OC2OC(C)C(OC3CC(C)(O)C(OS(=O)(=O)Cc4ccccc4)C(C)O3)C(N(C)C)C2O)C(CC=O)CC(C)C(=O)C=CC(C)=CC1COC1OC(C)C(O)C(OC)C1OC (stereo not shown) [Control 4, reference compound]	0	–
